Assays:
redroot pigweed = test: Test A pre-/postemergence greenhouse test; type: in vivo, Amaranthus retroflexus; settings: for Plant response rating, Pigweed: 0 to 100 scale where 0 is no effect and 100 is complete control; for Pigweed plant response rating: 0 to 100 scale
Method in brief: (§1)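 Pre: directed soil spray on seeded loam/sand. Post: foliar spray, plants 2–10 cm, 1–2 leaf stage, applied concurrently. Vehicle: non-phytotoxic solvent + surfactant. Greenhouse ~10 d; visual injury rating vs untreated controls.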

velvetleaf [1] = test: Test A pre-/postemergence greenhouse test; type: in vivo, Abutilon theophrasti; settings: for Plant response rating, Velvetleaf: 0 to 100 scale where 0 is no effect and 100 is complete control; for Velvetleaf plant response rating: 0 to 100 scale
Method in brief: as §1

wheat [2] = test: Test A pre-/postemergence greenhouse test; type: in vivo, Triticum aestivum; settings: for Plant response rating, Wheat: 0 to 100 scale where 0 is no effect and 100 is complete control; for Wheat plant response rating: 0 to 100 scale
Method in brief: as §1

downy brome = test: Test C pre-/postemergence test; type: in vivo, Bromus tectorum
Method in brief: (§2)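 Test chemicals were formulated with surfactant in a non-phytotoxic solvent and sprayed both on freshly planted seeds (preemergence) and on 1- to 4-leaf plants of 2–18 cm (postemergence). Flooded-paddy pots received compound directly into 3 cm of standing water, maintained for the test.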

wheat [3] = test: Test C pre-/postemergence test; type: in vivo, Triticum aestivum
Method in brief: as §2

wild oat = test: Test C pre-/postemergence test; type: in vivo, Avena fatua
Method in brief: as §2

corn = test: Test C pre-/postemergence test; type: in vivo, Zea mays
Method in brief: as §2

woolly cupgrass = test: Test C pre-/postemergence test; type: in vivo, Eriochloa villosa
Method in brief: as §2

giant foxtail = test: Test C pre-/postemergence test; type: in vivo, Setaria faberii
Method in brief: as §2

johnsongrass = test: Test C pre-/postemergence test; type: in vivo, Sorghum halepense
Method in brief: as §2

morningglory = test: Test C pre-/postemergence test; type: in vivo, Ipomoea coccinea
Method in brief: as §2

eastern black nightshade = test: Test C pre-/postemergence test; type: in vivo, Solanum ptycanthum
Method in brief: as §2

yellow nutsedge = test: Test C pre-/postemergence test; type: in vivo, Cyperus esculentus
Method in brief: as §2

velvetleaf [4] = test: Test C pre-/postemergence test; type: in vivo, Abutilon theophrasti
Method in brief: as §2

rice = test: Test C flooded paddy test; type: in vivo, Oryza sativa; settings: Flood
Method in brief: (§3)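 Flooded 3 cm over soil; compound into paddy water; depth kept constant. Greenhouse 13–15 d.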

duck salad = test: Test C flooded paddy test; type: in vivo, Heteranthera limosa; settings: Flood
Method in brief: as §3

[5] = Postemergence, 500 g ai/ha, 0 is no effect, 100 is complete control
[6] = Preemergence, 125 g ai/ha, 0 no effect, 100 complete control
[7] = 62 g ai/ha, Preemergence, scale 0 to 100
[8] = 125 g ai/ha, preemergence, scale 0 (no effect) to 100 (complete control)
[9] = Postemergence, 125 g ai/ha, scale 0 to 100, 0 no effect, 100 complete control
[10] = Postemergence, 250 g ai/ha, scale 0 to 100, 0 no effect, 100 complete control
[11] = Preemergence, 31 g ai/ha, scale 0 to 100 (0 no effect, 100 complete control)
[12] = preemergence, 250 g ai/ha, scale 0 (no effect) to 100 (complete control)
[13] = 62 g ai/ha, scale 0 to 100 (0 no effect, 100 complete control)
[14] = 250 g ai/ha, scale 0 to 100, 0 no effect, 100 complete control, 13 to 15 days

`Cn1nc(C(F)(F)C(F)(F)F)c(C[S+]([O-])c2cccc[n+]2[O-])c1OCC(F)(F)F` (stereo not shown) [Compound 79] was tested, and the “Plant response rating, Pigweed” value (redroot pigweed; Postemergence, 125 g ai/ha) was 30, the “Pigweed plant response rating” value (redroot pigweed; [5]) was 70 and the “Pigweed plant response rating” value (redroot pigweed; [6]) was 90. For the same compound, the “Plant response rating, Pigweed” value (redroot pigweed; Preemergence, 500 g ai/ha) was 100, the “Plant response rating, Velvetleaf” value (velvetleaf [1]; Postemergence, 125 g ai/ha) was 60 and the “Velvetleaf plant response rating” value (velvetleaf [1]; [5]) was 80. The “Velvetleaf plant response rating” value (velvetleaf [1]; [6]) was 80, the “Plant response rating, Velvetleaf” value (velvetleaf [1]; Preemergence, 500 g ai/ha) was 100 and the “Plant response rating, Wheat” value (wheat [2]; Postemergence, 125 g ai/ha) was 50. The “Wheat plant response rating” value (wheat [2]; [5]) was 70, the “Wheat plant response rating” value (wheat [2]; [6]) was 80 and the “Plant response rating, Wheat” value (wheat [2]; Preemergence, 500 g ai/ha) was 100. The “Bromegrass, Downy plant response rating” value (downy brome; [7]) was 50, the “Bromegrass, Downy plant response rating” value (downy brome; [8]) was 100 and the “Plant response rating (0 to 100), Bromegrass, Downy” value (downy brome; Postemergence, 31 g ai/ha) was 0. The “Plant response rating (0 to 100), Bromegrass, Downy” value (downy brome; Postemergence, 62 g ai/ha) was 0, the “Plant response rating, Bromegrass, Downy” value (downy brome; [9]) was 20 and the “Plant response rating, Bromegrass, Downy” value (downy brome; [10]) was 60. For the same compound, the “Plant response rating, Bromegrass, Downy” value (downy brome; [11]) was 50, the “Bromegrass, Downy plant response rating” value (downy brome; [12]) was 100 and the “Wheat plant response rating” value (wheat [3]; [7]) was 10. The “Wheat plant response rating” value (wheat [3]; [8]) was 60, the “Plant response rating (0 to 100), Wheat” value (wheat [3]; Postemergence, 31 g ai/ha) was 0 and the “Plant response rating (0 to 100), Wheat” value (wheat [3]; Postemergence, 62 g ai/ha) was 30. The “Plant response rating, Wheat” value (wheat [3]; [9]) was 60, the “Plant response rating, Wheat” value (wheat [3]; [10]) was 80 and the “Plant response rating, Wheat” value (wheat [3]; [11]) was 10. For the same compound, the “Wheat plant response rating” value (wheat [3]; [12]) was 80, the “Oat, Wild plant response rating” value (wild oat; [7]) was 70 and the “Oat, Wild plant response rating” value (wild oat; [8]) was 85. The “Plant response rating (0 to 100), Oat, Wild” value (wild oat; Postemergence, 31 g ai/ha) was 0, the “Plant response rating (0 to 100), Oat, Wild” value (wild oat; Postemergence, 62 g ai/ha) was 35 and the “Plant response rating, Oat, Wild” value (wild oat; [9]) was 40. The “Plant response rating, Oat, Wild” value (wild oat; [10]) was 50, the “Plant response rating, Oat, Wild” value (wild oat; [11]) was 70 and the “Oat, Wild plant response rating” value (wild oat; [12]) was 90. For the same compound, the “Corn plant response rating” value (corn; [7]) was 100, the “Corn plant response rating” value (corn; [8]) was 100 and the “Plant response rating (0 to 100), Corn” value (corn; Postemergence, 31 g ai/ha) was 0. For the same compound, the “Plant response rating (0 to 100), Corn” value (corn; Postemergence, 62 g ai/ha) was 25, the “Plant response rating, Corn” value (corn; [9]) was 60 and the “Plant response rating, Corn” value (corn; [10]) was 60. For the same compound, the “Plant response rating, Corn” value (corn; [11]) was 60, the “Corn plant response rating” value (corn; [12]) was 100 and the “Cupgrass, Woolly plant response rating” value (woolly cupgrass; [7]) was 50. For the same compound, the “Cupgrass, Woolly plant response rating” value (woolly cupgrass; [8]) was 98, the “Plant response rating (0 to 100), Cupgrass, Woolly” value (woolly cupgrass; Postemergence, 31 g ai/ha) was 0 and the “Plant response rating (0 to 100), Cupgrass, Woolly” value (woolly cupgrass; Postemergence, 62 g ai/ha) was 0. For the same compound, the “Plant response rating, Cupgrass, Woolly” value (woolly cupgrass; [9]) was 40, the “Plant response rating, Cupgrass, Woolly” value (woolly cupgrass; [10]) was 50 and the “Plant response rating, Cupgrass, Woolly” value (woolly cupgrass; [11]) was 0. For the same compound, the “Cupgrass, Woolly plant response rating” value (woolly cupgrass; [12]) was 100, the “Foxtail, Giant plant response rating” value (giant foxtail; [7]) was 70 and the “Foxtail, Giant plant response rating” value (giant foxtail; [8]) was 80. For the same compound, the “Plant response rating (0 to 100), Foxtail, Giant” value (giant foxtail; Postemergence, 31 g ai/ha) was 0, the “Plant response rating (0 to 100), Foxtail, Giant” value (giant foxtail; Postemergence, 62 g ai/ha) was 0 and the “Plant response rating, Foxtail, Giant” value (giant foxtail; [9]) was 50. For the same compound, the “Plant response rating, Foxtail, Giant” value (giant foxtail; [10]) was 70, the “Plant response rating, Foxtail, Giant” value (giant foxtail; [11]) was 70 and the “Foxtail, Giant plant response rating” value (giant foxtail; [12]) was 100. For the same compound, the “Johnsongrass plant response rating” value (johnsongrass; [7]) was 95, the “Johnsongrass plant response rating” value (johnsongrass; [8]) was 95 and the “Plant response rating (0 to 100), Johnsongrass” value (johnsongrass; Postemergence, 31 g ai/ha) was 0. For the same compound, the “Plant response rating (0 to 100), Johnsongrass” value (johnsongrass; Postemergence, 62 g ai/ha) was 20, the “Plant response rating, Johnsongrass” value (johnsongrass; [9]) was 25 and the “Plant response rating, Johnsongrass” value (johnsongrass; [10]) was 50. The “Plant response rating, Johnsongrass” value (johnsongrass; [11]) was 80, the “Johnsongrass plant response rating” value (johnsongrass; [12]) was 95 and the “Morningglory plant response rating” value (morningglory; [7]) was 100. For the same compound, the “Morningglory plant response rating” value (morningglory; [8]) was 100, the “Plant response rating (0 to 100), Morningglory” value (morningglory; Postemergence, 31 g ai/ha) was 0 and the “Plant response rating (0 to 100), Morningglory” value (morningglory; Postemergence, 62 g ai/ha) was 0. The “Plant response rating, Morningglory” value (morningglory; [9]) was 0, the “Plant response rating, Morningglory” value (morningglory; [10]) was 0 and the “Plant response rating, Morningglory” value (morningglory; [11]) was 60. The “Morningglory plant response rating” value (morningglory; [12]) was 100, the “Nightshade plant response rating” value (eastern black nightshade; [7]) was 50 and the “Nightshade plant response rating” value (eastern black nightshade; [8]) was 50. For the same compound, the “Plant response rating, Nightshade” value (eastern black nightshade; [11]) was 40, the “Nightshade plant response rating” value (eastern black nightshade; [12]) was 100 and the “Nutsedge, Yellow plant response rating” value (yellow nutsedge; [7]) was 75. For the same compound, the “Nutsedge, Yellow plant response rating” value (yellow nutsedge; [8]) was 90, the “Plant response rating (0 to 100), Nutsedge, Yellow” value (yellow nutsedge; Postemergence, 31 g ai/ha) was 0 and the “Plant response rating (0 to 100), Nutsedge, Yellow” value (yellow nutsedge; Postemergence, 62 g ai/ha) was 0. For the same compound, the “Plant response rating, Nutsedge, Yellow” value (yellow nutsedge; [9]) was 0, the “Plant response rating, Nutsedge, Yellow” value (yellow nutsedge; [10]) was 10 and the “Plant response rating, Nutsedge, Yellow” value (yellow nutsedge; [11]) was 0. For the same compound, the “Nutsedge, Yellow plant response rating” value (yellow nutsedge; [12]) was 100, the “Velvetleaf plant response rating” value (velvetleaf [4]; [7]) was 100 and the “Velvetleaf plant response rating” value (velvetleaf [4]; [8]) was 100. For the same compound, the “Plant response rating (0 to 100), Velvetleaf” value (velvetleaf [4]; Postemergence, 31 g ai/ha) was 0, the “Plant response rating (0 to 100), Velvetleaf” value (velvetleaf [4]; Postemergence, 62 g ai/ha) was 0 and the “Plant response rating, Velvetleaf” value (velvetleaf [4]; [9]) was 50. For the same compound, the “Plant response rating, Velvetleaf” value (velvetleaf [4]; [10]) was 70, the “Plant response rating, Velvetleaf” value (velvetleaf [4]; [11]) was 100 and the “Velvetleaf plant response rating” value (velvetleaf [4]; [12]) was 100. The “Plant response rating, Rice” value (rice; [13]) was 70, the “Plant response rating, Rice” value (rice; [14]) was 80 and the “Plant response rating, Ducksalad” value (duck salad; [13]) was 90. For the same compound, the “Plant response rating, Ducksalad” value (duck salad; [14]) was 100.

From patent publication US20100298141A1, “SUBSTITUTED PYRIDINE N-OXIDE HERBICIDES” (E. I. DU PONT DE NEMOURS AND COMPANY, priority 2007, published 2010)
